The test system of experiment [1] is mouse neural progenitors and mouse embryonic fibroblasts. Conditions: in combination with two factors (Oct4 and Klf4); cited from earlier work.
Experiment [2] has as its system diabetic MSCs. Put plainly: real-time RT-PCR of angiogenic genes in compound-treated diabetic MSCs. It counts as cell-based, rat. Conditions: D-MSCs treated with epigenetic compounds for 7 days, FIG. 1. As to the method: To reprogram diabetic MSCs with epigenetic compounds, cultured D-MSCs were treated with HDAC inhibitor: Vorinostat or suberoylanilide hydroxamic acid (SAHA); DNA methyltransferase inhibitor: Decitabine (trade name Dacogen), or 5-aza-2′-deoxycytidine (5-aza); multiple histone 3 lysine 9 (H3K9) methyltransferases G9a and GLP inhibitor: BIX-01294; and GSK3β inhibitor: CHIR99021 for 7 more days. N-MSCs and D-MSCs were cultured by a standard MSC culture method. The cultured MSCs are typically reseeded at day 4 and cultured for another 4 days. To examine the expression levels of angiogenic genes, we isolated RNAs from N-, D-, or epigenetic compound treated reprogrammed D-MSCs (RD-MSCs), and performed real-time RT-PCR with specific primers of angiogenic genes.
Diabetes was induced in 8 week-old male Fischer 344 rats by intravenous injection of streptozotocin ([…]). Blood glucose levels were measured using an Accu-Check glucometer (Roche, Indianapolis, Ind.) after one week and two months. […]
Gene expression was determined by TaqMan® real-time quantitative PCR on the 7300 Sequence Detection System (Applied Biosystems) using TaqMan® PCR Master Mix (Applied Biosystems). […] Relative mRNA expression of target gene normalized to GAPDH was calculated by using the formula Relative Expression Level=2−ΔCt, where ΔCt=Ct gene of interest−Ct GAPDH. […]

Regarding `COc1cc2nc(N3CCCN(C)CC3)nc(NC3CCN(Cc4ccccc4)CC3)c2cc1OC` [BIX01294], the reprogramming efficiency result in experiment [1] was “enhanced the reprogramming efficiency”.
Regarding `COC(=O)C1=C(C)NC(C)=C([N+](=O)[O-])C1c1ccccc1C(F)(F)F` (stereo not drawn) [BayK8644, 1,4-dihydro-2,6-dimethyl-5-nitro-4-[2-(trifluoromethyl)phenyl]-3-pyridinecarboxylic acid, methyl ester], the reprogramming efficiency result in experiment [1] is reported as “enhanced the reprogramming efficiency”.
For `O=C(CCCCCCC(=O)Nc1ccccc1)NO` [SAHA, suberoylanilide hydroxamic acid], the “expression of major angiogenic genes” value in experiment [2] is given as “significant increased pattern in most of genes”.

The record behind these values is patent US10828331B2, “Cellular compositions used to restore stem cell or progenitor cell function and methods related thereto” (Emory University, priority 2012, dated 2020).
